Each structure is given as a SMILES string. Calls of active or inactive are those of the source.

For assay [1], the target named is T1, Carboxy-terminal domain RNA polymerase II polypeptide A small phosphatase 1 (Homo sapiens, UniProt Q9GZU7).
T1 sequence (Q9GZU7 whole entry): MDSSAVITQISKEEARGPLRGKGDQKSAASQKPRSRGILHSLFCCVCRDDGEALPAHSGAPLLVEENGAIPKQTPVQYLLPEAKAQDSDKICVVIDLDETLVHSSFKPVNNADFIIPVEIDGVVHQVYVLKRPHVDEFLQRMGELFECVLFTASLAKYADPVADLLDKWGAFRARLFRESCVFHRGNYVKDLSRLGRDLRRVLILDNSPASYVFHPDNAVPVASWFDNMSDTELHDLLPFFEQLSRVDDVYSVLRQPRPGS
Description: CTDSP1 inhibitors, concentration-response, biochemical, absorbance readout, ultra-high-throughput screen actives (AID 540297). In kind it is functional.

In assay [2] the target is T2, Small ubiquitin-related modifier 2 (Homo sapiens, UniProt P61956). Description: disruption of SUMO2 interaction with SIM peptide – biochemical, fluorescence polarization, uHTS hits, selectivity assay for SUMO1 interaction inhibitor project, dose response (AID 624385). In kind it is functional. The following applies: read-out: IC50_Mean. In general terms: Fluorescence polarisation rises when a labelled molecule tumbles more slowly, as on binding a larger partner.

Assay [3] concerns the target T3, Small ubiquitin-related modifier 1 (Homo sapiens, UniProt P63165). Kind of assay: SUMO1 protein interaction blockers, potency – biochemical, fluorescence polarization, uHTS hits, dose response (AID 624382). Format: functional. The following applies: read-out: IC50_Mean.
Assay [4] concerns the target T4, Probable nicotinate-nucleotide adenylyltransferase (Staphylococcus aureus (strain N315), UniProt P65502). In kind it is functional, Staphylococcus aureus subsp. aureus N315.
Assay [5] has as its target T4, Probable nicotinate-nucleotide adenylyltransferase. Format: functional, Staphylococcus aureus subsp. aureus N315. Particulars: read-out: IC50_Mean.
Assay [6] addresses T2, Small ubiquitin-related modifier 2. Description: SUMO2 binding disruption by SUMO1 hits – biochemical, FRET, human SUMO2, uHTS hits, selectivity assay for SUMO1 interaction inhibitor project, dose response (AID 624384). The following applies: read-out: IC50_Mean. In kind it is functional.
Assay [7] deals with T3, Small ubiquitin-related modifier 1. Kind of assay: SUMO1 protein-protein binding blockers, potency – biochemical, FRET, dose response (AID 624383). Format: functional. Particulars: read-out: IC50_Mean.
A short description of assay [8]: cells. Format: functional, cell-based.
A short description of assay [9]: cells. Format: functional, cell-based. The source holds these as a separate data set.
Assay [10] concerns the target Nuclear receptor subfamily 5 group A member 2 (Homo sapiens, UniProt O00482). Format: functional, cell-based.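 Also: HEK293T cells transfected with LRH-1 and a StAR promoter luciferase reporter; potency for inhibitors that lower LRH-1 driven reporter light.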
The next assay addresses Steroidogenic factor 1 (Homo sapiens, UniProt Q13285). Description: Counterscreen for inverse agonists of the liver receptor homolog-1 (LRH-1; NR5A2): Luminescence-based cell-based high throughput dose response assay to identify inverse agonists of the Steroidogenic Factor 1 Nuclear Receptor (SF1; NR5A1). Format: functional. In general terms: A counterscreen serves to expose hits that act by an unwanted route or on another target.

Assay [11] in a line: nonselective StAR promoter luciferase inhibitors – cell-based, luminescence, luciferase reporter, counter-screen for LRH-1 inverse agonist project, dose response (AID 651969). In kind it is functional.
Assay [12] has as its target Ras and Rab interactor 1/Tyrosine-protein kinase ABL1 (Homo sapiens, UniProt P00519+Q13671). Format: functional.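 Also: biochemical TR-FRET dose-response test measuring inhibition of binding between Rin1 and Abl proteins.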
The target of assay [13] is T5, COUP transcription factor 2 (Homo sapiens, UniProt P24468).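 Also: HEK293 cells transiently cotransfected with COUP-TFII expression vector and reporter; luciferase reporter luminescence driven by COUP-TFII from the pX2-168 reporter plasmid.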
T5 sequence (P24468 whole entry): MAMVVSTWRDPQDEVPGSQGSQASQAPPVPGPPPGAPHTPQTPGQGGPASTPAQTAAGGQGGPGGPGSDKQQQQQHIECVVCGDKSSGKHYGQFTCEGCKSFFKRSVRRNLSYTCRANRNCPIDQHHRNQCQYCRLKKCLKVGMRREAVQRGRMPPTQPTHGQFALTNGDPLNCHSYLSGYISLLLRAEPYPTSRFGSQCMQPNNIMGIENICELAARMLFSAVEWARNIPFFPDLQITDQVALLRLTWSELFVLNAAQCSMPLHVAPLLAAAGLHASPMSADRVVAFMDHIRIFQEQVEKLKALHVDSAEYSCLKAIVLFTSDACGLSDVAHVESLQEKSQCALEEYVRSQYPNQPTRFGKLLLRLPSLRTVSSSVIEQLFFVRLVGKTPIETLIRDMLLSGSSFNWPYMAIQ
Kind of assay: Luminescence-based cell-based high throughput dose response assay to identify inhibitors of COUP-TFII (NR2F2). Format: functional.

Assay [14] has as its target T6, Melanocortin receptor 4 (Homo sapiens, UniProt P32245). Kind of assay: inhibitors of MC4R cAMP signaling – cell-based, TR-FRET, biased antagonists, dose response (AID 602298).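 Also: antagonist potency against agonist-stimulated cAMP production.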 Format: functional. For orientation: In TR-FRET formats the signal depends on donor and acceptor labels being close together.
Assay [15] can be described thus: cAMP pathway inhibition in counterscreen cell line – TR-FRET cAMP detection, counter-screen for MC4R biased antagonist project, dose response (AID 602305).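 Also: U2OS cells stimulated with forskolin near its EC80 as the cAMP inducer; potency is for inhibition of forskolin-stimulated cAMP signaling.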 In kind it is functional, cell-based.
Assay [16] deals with T7, Heat shock factor protein 1 (Mus musculus, UniProt P38532).
T7 sequence (P38532 whole entry): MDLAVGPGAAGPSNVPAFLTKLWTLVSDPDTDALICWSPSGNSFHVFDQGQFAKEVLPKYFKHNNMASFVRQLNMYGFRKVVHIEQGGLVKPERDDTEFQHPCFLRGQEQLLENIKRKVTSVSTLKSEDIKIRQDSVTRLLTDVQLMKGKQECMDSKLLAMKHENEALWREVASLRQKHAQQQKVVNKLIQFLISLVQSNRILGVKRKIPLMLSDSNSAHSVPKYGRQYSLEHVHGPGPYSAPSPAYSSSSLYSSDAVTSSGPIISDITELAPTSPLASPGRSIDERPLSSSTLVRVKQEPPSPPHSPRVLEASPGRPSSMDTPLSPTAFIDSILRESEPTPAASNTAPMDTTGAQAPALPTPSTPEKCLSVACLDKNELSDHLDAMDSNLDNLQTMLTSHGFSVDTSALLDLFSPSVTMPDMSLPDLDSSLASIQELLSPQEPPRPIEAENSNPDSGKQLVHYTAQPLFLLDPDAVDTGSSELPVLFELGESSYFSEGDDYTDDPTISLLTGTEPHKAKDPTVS
Description: enhancement of HSF1-driven luciferase signal – cell-based, NIH3T3, luminescence, dose retest, confirmation (AID 435004).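 Also: stress induced by proteasome inhibitor MG132 added 30 min after compound; luciferase reporter driven by HSF1 response element in NIH3T3 cells; actives raise luminescence as potentiators of the MG132 stress response.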 Format: functional.

Assay [17] deals with T8, Replicative DNA helicase DnaB (Mycobacterium tuberculosis, UniProt P9WMR3).
T8 sequence (P9WMR3 whole entry): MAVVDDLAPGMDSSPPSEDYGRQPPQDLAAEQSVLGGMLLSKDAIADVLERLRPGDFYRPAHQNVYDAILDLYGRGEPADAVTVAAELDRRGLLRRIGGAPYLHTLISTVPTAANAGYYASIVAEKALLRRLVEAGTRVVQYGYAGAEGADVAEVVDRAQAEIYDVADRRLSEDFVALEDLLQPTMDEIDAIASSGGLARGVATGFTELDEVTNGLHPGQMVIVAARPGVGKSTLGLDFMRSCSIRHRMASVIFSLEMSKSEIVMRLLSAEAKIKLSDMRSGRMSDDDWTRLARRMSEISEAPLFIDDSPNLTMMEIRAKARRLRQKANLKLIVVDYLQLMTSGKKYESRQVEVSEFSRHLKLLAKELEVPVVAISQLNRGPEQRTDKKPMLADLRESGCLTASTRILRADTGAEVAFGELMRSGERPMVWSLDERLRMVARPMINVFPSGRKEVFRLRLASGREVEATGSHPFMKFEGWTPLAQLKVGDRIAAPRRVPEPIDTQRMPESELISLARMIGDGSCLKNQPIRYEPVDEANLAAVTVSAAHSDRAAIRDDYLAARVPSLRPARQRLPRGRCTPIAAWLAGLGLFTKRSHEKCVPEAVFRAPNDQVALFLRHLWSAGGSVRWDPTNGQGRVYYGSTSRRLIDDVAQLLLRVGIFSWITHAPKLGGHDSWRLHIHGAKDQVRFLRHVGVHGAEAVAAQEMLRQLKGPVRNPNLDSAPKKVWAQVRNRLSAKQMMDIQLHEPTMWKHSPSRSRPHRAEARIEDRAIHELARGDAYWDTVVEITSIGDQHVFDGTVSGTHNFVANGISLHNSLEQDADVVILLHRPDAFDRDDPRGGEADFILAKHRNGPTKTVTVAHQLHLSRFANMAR
Kind of assay: DnaB intein splicing inhibitors, dose response, biochemical, cell-free fluorescence (AID 449749). Format: functional.

The target of the next assay is T9, Protein RecA (Mycobacterium tuberculosis, UniProt P9WHJ3).
T9 sequence (P9WHJ3 whole entry): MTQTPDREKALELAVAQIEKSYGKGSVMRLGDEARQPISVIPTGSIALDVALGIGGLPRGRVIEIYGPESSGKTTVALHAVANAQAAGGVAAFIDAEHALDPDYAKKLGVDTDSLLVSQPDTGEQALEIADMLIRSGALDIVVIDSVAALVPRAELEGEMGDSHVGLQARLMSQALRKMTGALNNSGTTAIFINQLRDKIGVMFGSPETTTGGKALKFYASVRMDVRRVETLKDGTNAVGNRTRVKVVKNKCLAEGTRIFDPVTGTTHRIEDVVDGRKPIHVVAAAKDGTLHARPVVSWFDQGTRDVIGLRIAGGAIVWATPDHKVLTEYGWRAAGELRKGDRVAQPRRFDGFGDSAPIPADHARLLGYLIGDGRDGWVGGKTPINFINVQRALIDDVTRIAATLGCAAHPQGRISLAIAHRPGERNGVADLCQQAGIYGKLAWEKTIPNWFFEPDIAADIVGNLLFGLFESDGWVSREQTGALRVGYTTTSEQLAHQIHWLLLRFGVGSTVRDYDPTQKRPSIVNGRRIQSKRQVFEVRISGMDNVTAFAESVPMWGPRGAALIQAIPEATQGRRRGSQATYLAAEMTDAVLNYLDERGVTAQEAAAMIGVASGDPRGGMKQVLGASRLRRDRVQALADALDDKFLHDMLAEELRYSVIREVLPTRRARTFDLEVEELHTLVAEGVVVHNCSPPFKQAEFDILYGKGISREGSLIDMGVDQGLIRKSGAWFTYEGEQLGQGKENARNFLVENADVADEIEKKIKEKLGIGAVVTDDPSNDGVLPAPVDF
Description: Fluorescence Cell-Free Homogeneous Dose Retest to Identify Inhibitors of RecA-Intein Splicing Activity. [Related pubchem assays (depositor defined):AID2097, AID2223, AID489010, AID492950]. Format: functional.

In assay [18] the target is T10, Polyadenylate-binding protein 1 (Homo sapiens, UniProt P11940). Kind of assay: MLLE binding blockers, Cy5 peptide tracer – biochemical, fluorescence polarization, Cy5-PAM2 peptide, secondary, miRNA deadenylation inhibitor project, dose response (AID 602260). In kind it is functional. The following applies: read-out: IC50_Mean.
For assay [19], the target named is T10, Polyadenylate-binding protein 1. Kind of assay: MLLE domain peptide-binding blockers, IC50 – biochemical, fluorescence polarization, FITC-PAM2 peptide, dose response (AID 602259). In kind it is functional. Particulars: read-out: IC50_Mean.
Assay [20] has as its target SWI/SNF-related matrix-associated actin-dependent regulator of chromatin subfamily A member 2 (Homo sapiens, UniProt P51531). Kind of assay: Luminescence-based cell-based high throughput dose response assay to identify activators of the function of SWI/SNF related, matrix associated, actin dependent regulator of chromatin, subfamily a, member 2 (SMARCA2, BRM). Format: functional.

Assay [21] can be described thus: Counterscreen for activators of the function of SWI/SNF related, matrix associated, actin dependent regulator of chromatin, subfamily a, member 2 (SMARCA2, BRM): Luminescence-based cell-based high throughput dose response assay to identify non-selective compounds using the VP16 reporter assay. In kind it is functional.
Assay [22] concerns the target T6, Melanocortin receptor 4. In kind it is functional, cell-based.

T6 sequence (P32245 whole entry): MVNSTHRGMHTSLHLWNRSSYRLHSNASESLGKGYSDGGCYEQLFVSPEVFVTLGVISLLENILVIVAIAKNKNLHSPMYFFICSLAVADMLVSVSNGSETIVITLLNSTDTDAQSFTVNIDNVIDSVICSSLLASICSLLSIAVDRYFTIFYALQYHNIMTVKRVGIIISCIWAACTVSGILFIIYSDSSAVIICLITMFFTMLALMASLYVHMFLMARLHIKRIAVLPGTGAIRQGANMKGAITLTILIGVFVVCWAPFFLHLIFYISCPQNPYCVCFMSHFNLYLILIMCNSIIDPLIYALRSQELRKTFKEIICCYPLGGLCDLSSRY
T2 sequence (P61956 whole entry): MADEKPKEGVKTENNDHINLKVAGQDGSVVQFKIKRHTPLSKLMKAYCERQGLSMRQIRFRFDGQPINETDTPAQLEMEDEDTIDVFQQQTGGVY
T3 sequence (P63165 whole entry): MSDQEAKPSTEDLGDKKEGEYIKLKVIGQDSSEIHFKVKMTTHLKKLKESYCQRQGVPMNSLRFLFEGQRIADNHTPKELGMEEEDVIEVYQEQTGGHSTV
T4 sequence (P65502 whole entry): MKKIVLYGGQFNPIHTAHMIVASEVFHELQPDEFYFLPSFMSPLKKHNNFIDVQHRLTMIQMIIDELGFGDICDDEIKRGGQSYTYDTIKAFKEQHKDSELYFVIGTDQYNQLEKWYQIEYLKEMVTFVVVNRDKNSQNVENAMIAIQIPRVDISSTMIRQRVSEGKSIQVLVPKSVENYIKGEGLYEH
T10 sequence (P11940 whole entry, the tested form may be a part): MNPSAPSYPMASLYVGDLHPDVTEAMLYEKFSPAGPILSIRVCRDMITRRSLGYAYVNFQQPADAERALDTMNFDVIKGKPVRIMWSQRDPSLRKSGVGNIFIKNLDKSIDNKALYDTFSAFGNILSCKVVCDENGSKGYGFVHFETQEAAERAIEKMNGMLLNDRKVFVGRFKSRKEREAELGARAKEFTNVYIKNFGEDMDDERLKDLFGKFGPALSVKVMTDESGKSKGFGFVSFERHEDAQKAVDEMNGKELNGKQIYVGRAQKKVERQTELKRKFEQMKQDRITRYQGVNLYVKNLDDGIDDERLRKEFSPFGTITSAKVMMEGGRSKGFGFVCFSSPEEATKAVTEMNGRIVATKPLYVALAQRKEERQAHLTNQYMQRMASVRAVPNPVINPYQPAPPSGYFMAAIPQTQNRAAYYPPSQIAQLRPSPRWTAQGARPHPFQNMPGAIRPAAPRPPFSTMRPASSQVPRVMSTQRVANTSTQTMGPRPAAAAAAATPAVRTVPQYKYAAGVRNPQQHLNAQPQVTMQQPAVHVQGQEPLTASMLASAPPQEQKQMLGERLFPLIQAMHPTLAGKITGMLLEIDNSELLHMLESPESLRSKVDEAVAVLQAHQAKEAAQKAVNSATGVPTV
Chain of Steroidogenic factor 1 (Q13285 whole entry): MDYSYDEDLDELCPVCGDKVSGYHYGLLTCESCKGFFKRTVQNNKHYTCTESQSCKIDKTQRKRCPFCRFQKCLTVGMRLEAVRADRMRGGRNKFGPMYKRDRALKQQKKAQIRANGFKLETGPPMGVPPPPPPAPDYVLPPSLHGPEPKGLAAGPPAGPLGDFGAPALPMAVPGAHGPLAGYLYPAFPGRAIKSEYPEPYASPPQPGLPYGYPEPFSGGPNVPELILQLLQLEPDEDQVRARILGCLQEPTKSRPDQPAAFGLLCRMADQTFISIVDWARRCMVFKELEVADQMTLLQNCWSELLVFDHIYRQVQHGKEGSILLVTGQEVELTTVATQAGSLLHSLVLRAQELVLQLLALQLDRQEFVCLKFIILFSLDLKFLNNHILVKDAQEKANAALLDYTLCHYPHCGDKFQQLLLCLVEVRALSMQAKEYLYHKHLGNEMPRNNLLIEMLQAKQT
Chain of Nuclear receptor subfamily 5 group A member 2 (O00482 whole entry): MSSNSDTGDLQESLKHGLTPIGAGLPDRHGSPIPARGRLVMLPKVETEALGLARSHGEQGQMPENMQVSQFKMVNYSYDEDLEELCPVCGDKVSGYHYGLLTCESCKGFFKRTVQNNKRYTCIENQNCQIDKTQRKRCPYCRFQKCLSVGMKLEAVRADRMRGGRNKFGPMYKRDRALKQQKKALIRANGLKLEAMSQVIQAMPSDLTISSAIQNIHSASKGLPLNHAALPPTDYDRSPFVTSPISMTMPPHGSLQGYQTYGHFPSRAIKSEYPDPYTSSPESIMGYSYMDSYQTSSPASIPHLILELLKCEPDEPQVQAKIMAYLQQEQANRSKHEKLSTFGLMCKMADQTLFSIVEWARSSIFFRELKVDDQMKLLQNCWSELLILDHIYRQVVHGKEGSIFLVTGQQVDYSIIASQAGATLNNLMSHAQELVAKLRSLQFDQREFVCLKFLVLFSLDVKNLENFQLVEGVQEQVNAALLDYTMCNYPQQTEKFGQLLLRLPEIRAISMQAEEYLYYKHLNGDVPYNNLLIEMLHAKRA
Chain of Ras and Rab interactor 1/Tyrosine-protein kinase ABL1 (P00519 whole entry): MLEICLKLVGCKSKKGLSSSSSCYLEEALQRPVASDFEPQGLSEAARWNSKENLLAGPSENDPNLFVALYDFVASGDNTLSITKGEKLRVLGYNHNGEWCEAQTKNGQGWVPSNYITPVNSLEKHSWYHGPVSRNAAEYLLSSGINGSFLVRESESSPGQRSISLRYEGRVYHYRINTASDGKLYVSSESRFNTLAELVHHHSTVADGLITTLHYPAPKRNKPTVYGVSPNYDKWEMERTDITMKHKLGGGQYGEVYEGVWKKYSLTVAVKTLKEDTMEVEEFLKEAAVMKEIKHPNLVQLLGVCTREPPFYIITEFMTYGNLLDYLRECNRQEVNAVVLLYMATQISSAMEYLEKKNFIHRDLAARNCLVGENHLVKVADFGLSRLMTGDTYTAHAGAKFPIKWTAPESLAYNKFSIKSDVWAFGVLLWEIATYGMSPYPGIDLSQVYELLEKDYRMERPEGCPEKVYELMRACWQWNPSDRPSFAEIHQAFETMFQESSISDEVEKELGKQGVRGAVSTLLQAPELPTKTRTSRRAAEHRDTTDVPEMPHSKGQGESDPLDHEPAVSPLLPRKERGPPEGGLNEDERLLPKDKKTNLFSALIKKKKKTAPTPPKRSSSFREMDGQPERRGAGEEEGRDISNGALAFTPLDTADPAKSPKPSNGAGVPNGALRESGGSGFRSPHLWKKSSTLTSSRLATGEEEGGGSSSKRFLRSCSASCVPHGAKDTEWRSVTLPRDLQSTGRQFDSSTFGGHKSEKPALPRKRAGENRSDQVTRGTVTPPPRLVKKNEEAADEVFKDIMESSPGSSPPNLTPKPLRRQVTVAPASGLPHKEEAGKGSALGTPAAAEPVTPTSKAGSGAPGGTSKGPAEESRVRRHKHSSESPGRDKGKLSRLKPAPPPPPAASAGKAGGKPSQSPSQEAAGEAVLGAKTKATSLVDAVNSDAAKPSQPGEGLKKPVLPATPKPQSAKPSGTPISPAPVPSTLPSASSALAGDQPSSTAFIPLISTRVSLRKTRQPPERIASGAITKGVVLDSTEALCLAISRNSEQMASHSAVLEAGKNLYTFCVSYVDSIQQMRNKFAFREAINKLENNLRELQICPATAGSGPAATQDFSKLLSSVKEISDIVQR
Chain of Ras and Rab interactor 1/Tyrosine-protein kinase ABL1 (Q13671 whole entry): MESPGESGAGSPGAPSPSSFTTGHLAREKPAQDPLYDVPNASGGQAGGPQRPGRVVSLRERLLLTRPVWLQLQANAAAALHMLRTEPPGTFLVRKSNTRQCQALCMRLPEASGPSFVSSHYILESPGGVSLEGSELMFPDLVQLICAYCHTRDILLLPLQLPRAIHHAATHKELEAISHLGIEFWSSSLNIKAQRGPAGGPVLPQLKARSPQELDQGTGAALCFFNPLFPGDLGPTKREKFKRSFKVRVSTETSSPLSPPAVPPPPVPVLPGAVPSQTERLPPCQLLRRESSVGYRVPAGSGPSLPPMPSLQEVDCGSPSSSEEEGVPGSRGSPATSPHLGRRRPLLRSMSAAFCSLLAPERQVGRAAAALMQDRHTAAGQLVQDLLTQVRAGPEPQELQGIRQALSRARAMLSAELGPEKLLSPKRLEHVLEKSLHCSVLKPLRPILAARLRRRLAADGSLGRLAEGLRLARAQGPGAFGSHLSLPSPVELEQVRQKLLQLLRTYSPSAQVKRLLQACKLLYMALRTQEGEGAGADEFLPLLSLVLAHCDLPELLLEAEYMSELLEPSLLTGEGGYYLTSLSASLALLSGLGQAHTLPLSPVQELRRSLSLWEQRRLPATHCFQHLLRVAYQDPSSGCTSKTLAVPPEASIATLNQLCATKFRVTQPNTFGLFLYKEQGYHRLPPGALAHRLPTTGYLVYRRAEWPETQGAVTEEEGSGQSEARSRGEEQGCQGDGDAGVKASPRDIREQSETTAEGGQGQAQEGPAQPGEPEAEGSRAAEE

Regarding `O=C1N=c2ccccc2=C1Nc1ccc(S(=O)(=O)Nc2nccs2)cc1`, the IC50 in [1] was 4.2 µM (active); in assay [2], 9.54 µM (active); in assay [3] it was 11 µM (active); in assay [4], 5.32 µM (active); in assay [5] it was 15.5 µM (active); in assay [6], 46.1 µM (inactive). The IC50 in assay [7] was 51 µM (inactive).
What is called EC50 is the concentration that produces a half-maximal response. As for `COc1ccc(NC(=O)CSc2[nH]cnc3nncc2-3)cc1`, the EC50 in the assay “cells [8]” and in “cells [9]” was > 350 µM (not active) throughout. Besides, the values for the IC50 (in assay [10]; at Steroidogenic factor 1; in [11]) were 1.37 µM (active), 1.73 µM (active) and 35.9 µM (inactive), respectively.
As to `CCCCc1nnc(NC(=O)c2ccc(OCc3c(C)noc3C)cc2)s1`, in assay [12], the IC50 is > 73.5 µM (inactive).
As to `OC[C@@H]1CN(Cc2ccc(-c3ccccc3)cc2)C[C@H](n2cnc3c(NC4CCC4)ncnc32)O1`, the IC50 in assay [12] was 16.7 µM (inactive); in assay [13], 8.62 µM (active).
`Cc1ccc(S(=O)(=O)N(C)CC(=O)OCC(=O)NC(=O)NC(C)C)cc1`: the IC50 (on Melanocortin receptor 4 [14]; in assay [15]) was > 64.6 µM (inactive) throughout.
For the compound `C[C@H]([C@@H](O)[C@@H](O)[C@@H](C)C(C)(C)C)[C@H]1CC[C@H]2[C@@H]3CC[C@H]4C[C@H](OS(=O)(=O)O)[C@@H](OS(=O)(=O)O)C[C@]4(C)[C@H]3CC[C@]12C`, the IC50 in assay [2] was 25.5 µM (inactive); in assay [3], 11 µM (active); in assay [6], 16.3 µM (active); in assay [7], 22.5 µM (inactive).
A word on the AC50: it is the concentration giving half of the maximal activity seen. For the compound `CC(=O)Nc1cccc(NC(=O)CSc2ncc(C(=O)Nc3ccccc3)c(=O)n2C)c1`, the EC50 is 12.8 µM (active) in [16], 1.61 µM (active) at Protein RecA, > 91.1 µM (inactive) in assay [20] and > 91.1 µM (inactive) in [21]. In addition, the AC50 in assay [17] was 6.51 µM (active). Further, the IC50 on Melanocortin receptor 4 [14] was > 64.6 µM (inactive); in assay [18] it was > 66 µM (inactive); in assay [19] it was > 66 µM (inactive); in [15], > 64.6 µM (inactive).
On to `CC(=O)Nc1cc(-c2cccnc2)cn2c(-c3ccc(F)cc3)cnc12`, for which the EC50 at Melanocortin receptor 4 [22] is > 89.2 µM (inactive). For the same compound, the figures for the IC50 (in assay [10]; at Steroidogenic factor 1; in assay [11]) were 22.3 µM (inactive), 4.56 µM (active) and 35.9 µM (inactive), respectively.

The record behind these values is ChEMBL document CHEMBL1201862, “PubChem BioAssay data set” (2004).
